pIC50: −log10 of the molar value. Structures can show the parent of a compound that is named as a salt.

In the first data set the target is T1, DMT1 (Homo sapiens, UniProt P49281).
T1 sequence (P49281 1-568): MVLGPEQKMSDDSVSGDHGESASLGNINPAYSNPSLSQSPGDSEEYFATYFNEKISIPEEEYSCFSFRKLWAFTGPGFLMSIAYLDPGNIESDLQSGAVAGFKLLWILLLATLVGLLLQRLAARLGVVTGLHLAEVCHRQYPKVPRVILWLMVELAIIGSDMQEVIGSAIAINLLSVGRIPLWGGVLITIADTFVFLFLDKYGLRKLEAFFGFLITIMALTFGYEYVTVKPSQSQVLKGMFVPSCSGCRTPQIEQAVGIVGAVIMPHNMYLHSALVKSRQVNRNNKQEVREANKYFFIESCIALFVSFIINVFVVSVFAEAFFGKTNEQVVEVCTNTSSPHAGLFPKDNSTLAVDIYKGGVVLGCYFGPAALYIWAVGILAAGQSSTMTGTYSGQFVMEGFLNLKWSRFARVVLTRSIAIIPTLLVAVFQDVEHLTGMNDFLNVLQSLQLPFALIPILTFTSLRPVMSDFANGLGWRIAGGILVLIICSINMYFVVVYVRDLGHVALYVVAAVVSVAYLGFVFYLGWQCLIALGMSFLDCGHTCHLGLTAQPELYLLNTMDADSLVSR
In words: DMT1 Activity Assay (in vitro). The class given is cell-based. The settings on record: read-out: IC50 Activity Level. From the text:
In particular, identification of the compounds of the invention ability to modulate, preferably to inhibit, DMT1 activity, can be assessed using a variety of in vitro and in vivo assays, for measuring uptake of reduced iron (Fe^2+). One such protocol involves the screening of chemical agents for ability to modulate the activity of DMT1 thereby identifying it as a modulating agent. The in vitro activity of DMT1 can be measured in cell based assays by either directly measuring iron flux (using a radioactively labelled iron ^55Fe) or by measuring the fluorescence of a cell permeable iron fluorophore such as calcein. Stable cell lines overexpressing DMT1 are exposed to ^55Fe or loaded with calcein and then compound is applied. […] Alternatively, in another format electrophysiological techniques can be used to measure the current or iron or other metals traversing the cell membrane with DMT1 in a Xenopus oocyte or other cell based system (Gunshin et al., Nature, 1997, 31; 388(6641):482-8).
This example discloses various in vitro assay for testing and profiling test agents against DMT1 stably expressed in cells of either an endogenous or recombinant origin. These assays can use stable cell lines overexpressing DMT1 or intestinal cells and intestinal tissue expressing endogenous DMT1. DMT1 function could also be assessed in other cell types that express DMT1. Of greatest relevance would be the erythrocytes (e.g. K562 cells) or hepatocytes (e.g. […]).
DMT1 function can be assessed in a number of ways, including monitoring fluorescence changes of an iron fluorophore (e.g. calcein), monitoring uptake of radiolabelled iron (^55Fe or ^59Fe) (Picard et al., J. Biol. Chem., 2000, 275(46):35738-45 and Wetli et al., Chem. Biol. 2006 September; 13(9):965-72), or by assessing the current or transport of iron and other metals into the cells or tissues using standard electrophysiological techniques (Gunshin et al., Nature, 1997, 388(6641):482-8.).
Variations of these assays involve alterations of incubation times, the iron status of the cells and tissues (which may be modulated by chemical chelators or by harvesting from iron deficient animals), the metal cation detected and the pH of the reaction can generally be made by conventional techniques known to those skilled in the art.
One may read the pIC50 as the negative decadic logarithm of the IC50, by convention in mol/L. Consider `N=C(N)SCc1cccc2c1sc1c(CSC(=N)N)cccc12` [Example 1, dibenzo[b,d]thiophene-4,6-diylbis(methylene) dicarbamimidothioate dihydrobromide], for which the pIC50 is 6.00 to 7.00.
Still for that read-out and setting: to `N=C(N)SCc1c(Br)ccc2c1sc1c(CSC(=N)N)c(Br)ccc12` [Example 1.1, (3,7-dibromodibenzo[b,d]thiophene-4,6-diyl)bis(methylene) dicarbamimidothioate dihydrobromide] belongs 6.00 to 7.00; to `N=C(N)SCc1cccc2c1sc1c(CSC(=N)N)c(Br)ccc12` [Example 1.2, (3-bromodibenzo[b,d]thiophene-4,6-diyl)bis(methylene) dicarbamimidothioate dihydrobromide], 6.00 to 7.00; to `Cc1ccc2c(oc3c(CSC(=N)N)c(C)ccc32)c1CSC(=N)N` [Example 1.3, (3,7-dimethyldibenzo[b,d]furan-4,6-diyl)bis(methylene) dicarbamimidothioate dihydrobromide], 6.00 to 7.00.
For `N=C(N)SCc1c(F)ccc2c1oc1c(CSC(=N)N)c(F)ccc12` [Example 1.4, (3,7-difluorodibenzo[b,d]furan-4,6-diyl)bis(methylene) dicarbamimidothioate dihydrobromide], the pIC50 was 7.00 to 8.00.
On the same count and under the same terms, to `N=C(N)SCc1c(Cl)ccc2c1oc1c(CSC(=N)N)c(Cl)ccc12` [Example 1.5, (3,7-dichlorodibenzo[b,d]furan-4,6-diyl)bis(methylene) dicarbamimidothioate] belongs 6.00 to 7.00; to `N=C(N)SCc1cccc2c1oc1c(CSC(=N)N)cc(F)cc12` [Example 1.6, (2-fluorodibenzo[b,d]furan-4,6-diyl)bis(methylene) dicarbamimidothioate dihydrobromide], 7.00 to 8.00.
On the same count and under the same terms, to `N=C(N)SCc1cc(Br)cc2c1oc1c(CSC(=N)N)cc(Br)cc12` [Example 1.7, (2,8-dibromodibenzo[b,d]furan-4,6-diyl)bis(methylene) dicarbamimidothioate dihydrobromide] belongs 7.00 to 8.00; to `N=C(N)SCc1cccc2c1oc1c(CSC(=N)N)cccc12` [Example 1.8, dibenzo[b,d]furan-4,6-diylbis(methylene) dicarbamimidothioate dihydrobromide], 7.00 to 8.00; to `N=C(N)SCc1cccc2cc3cccc(CSC(=N)N)c3cc12` [Example 1.9, anthracene-1,8-diylbis(methylene) dicarbamimidothioate dihydrobromide], 6.00 to 7.00.
For `N=C(N)SCc1cccc2c1sc1c(CSC(=N)N)cc(F)cc12` [Example 1.10, (2-fluorodibenzo[b,d]thiophene-4,6-diyl)bis(methylene) dicarbamimidothioate dihydrobromide], the pIC50 was 6.00 to 7.00.
Same read-out and setting: next, `N=C(N)SCc1cc(F)cc2c1sc1c(CSC(=N)N)cc(Cl)cc12` [Example 1.11, (2-chloro-8-fluorodibenzo[b,d]thiophene-4,6-diyl)bis(methylene) dicarbamimidothioate dihydrobromide]: 7.00 to 8.00.
`N=C(N)SCc1cccc2c1Oc1c(CSC(=N)N)cccc1S2` [Example 1.12, phenoxathiine-4,6-diylbis(methylene) dicarbamimidothioate dihydrobromide]: the negative logarithm of the IC50 (pIC50) was 6.00 to 7.00.
Same read-out and setting: to `N=C(N)SCc1c(Br)ccc2c1oc1c(CSC(=N)N)c(Br)ccc12` [Example 1.13, (3,7-dibromodibenzo[b,d]furan-4,6-diyl)bis(methylene) dicarbamimidothioate dihydrobromide] belongs 6.00 to 7.00.
Regarding `N=C(N)SCc1cccc2sc3cccc(CSC(=N)N)c3c12` [Example 1.14, dibenzo[b,d]thiophene-1,9-diylbis(methylene) dicarbamimidothioate dihydrobromide], the pIC50 is not above 6.00.
On the same count and under the same terms, next, `N=C(N)SCc1cccc2c1-c1c(CSC(=N)N)cccc1C2=O` [Example 1.15, (9-oxo-9H-fluorene-4,5-diyl)bis(methylene) dicarbamimidothioate dihydrobromide]: not above 6.00.
The same measure, in the same setting: to `N=C(N)SCc1cccc2c(=O)c3cccc(CSC(=N)N)c3oc12` [Example 1.16, (9-oxo-9H-xanthene-4,5-diyl)bis(methylene) dicarbamimidothioate dihydrobromide] belongs not above 6.00; to `Cc1c2cccc(CSC(=N)N)c2nc2c(CSC(=N)N)cccc12` [Example 1.17, (9-methylacridine-4,5-diyl)bis(methylene) dicarbamimidothioate dihydrobromide], not above 6.00; to `N=C(N)SCc1cccc2cc3cccc(CSC(=N)N)c3nc12` [Example 1.18, acridine-4,5-diylbis(methylene) dicarbamimidothioate dihydrobromide], 6.00 to 7.00.
With `N=C(N)SCc1cccc2c1-c1c(cccc1CSC(=N)N)CSC2` [Example 1.19, (5,7-dihydrodibenzo[c,e]thiepine-1,11-diyl)bis(methylene) dicarbamimidothioate dihydrobromide], the pIC50 was not above 6.00.
On the same count and under the same terms, to `N=C(N)SCc1cccc2c1C(=O)c1c(CSC(=N)N)cccc1-2` [Example 2, (9-oxo-9H-fluorene-1,8-diyl)bis(methylene) dicarbamimidothioate dihydrobromide] belongs 6.00 to 7.00; to `N=C(N)SCc1cccc2c1-c1c(CSC(=N)N)cccc1-2` [Example 2.1, biphenylene-1,8-diylbis(methylene)dicarbamimidothioate dihydrobromide], 7.00 to 8.00.
On to `N=C(N)SCc1ccc(CSC(=N)N)c2c1-c1c(CSC(=N)N)ccc(CSC(=N)N)c1-2` [Example 3, biphenylene-1,4,5,8-tetrayltetrakis(methylene) tetracarbamimidothioate tetrahydrobromide], for which the pIC50 was 6.00 to 7.00.
For the compound `CC(C)(C)c1cc(CSC(=N)N)c2c(c1)C(C)(C)c1cc(C(C)(C)C)cc(CSC(=N)N)c1O2` [Example 4, (2,7-di-tert-butyl-9,9-dimethyl-9H-xanthene-4,5-diyl)bis(methylene) dicarbamimidothioate dihydrobromide], the negative-log IC50 (pIC50) is not above 6.00.
Same read-out and setting: to `N=C(N)SCc1cc(F)cc2c1-c1c(CSC(=N)N)cc(F)cc1-2` [Example 5, (3,6-difluorobiphenylene-1,8-diyl)bis(methylene) dicarbamimidothioate dihydrobromide] belongs 7.00 to 8.00.

Tested on in the next data set: not given
Test: not given
Conditions: not given
For orientation: melting point means the temperature of the solid-liquid transition. Compound `Cc1ccc2c(oc3c(CSC(=N)N)c(C)ccc32)c1CSC(=N)N` (as salt: hydrobromid) [Example 1.3, (3,7-dimethyldibenzo[b,d]furan-4,6-diyl)bis(methylene) dicarbamimidothioate dihydrobromide] registered a melting point of more than 220 °C.
Same read-out and setting: next, `N=C(N)SCc1cccc2c1oc1c(CSC(=N)N)cc(F)cc12` (as salt: hydrobromid) [Example 1.6, (2-fluorodibenzo[b,d]furan-4,6-diyl)bis(methylene) dicarbamimidothioate dihydrobromide]: more than 220 °C; `N=C(N)SCc1cc(Br)cc2c1oc1c(CSC(=N)N)cc(Br)cc12` (as salt: hydrobromid) [Example 1.7, (2,8-dibromodibenzo[b,d]furan-4,6-diyl)bis(methylene) dicarbamimidothioate dihydrobromide]: more than 220 °C; `N=C(N)SCc1cccc2cc3cccc(CSC(=N)N)c3cc12` (as salt: hydrobromid) [Example 1.9, anthracene-1,8-diylbis(methylene) dicarbamimidothioate dihydrobromide]: more than 250 °C.
The same measure, in the same setting: next, `N=C(N)SCc1cccc2c1sc1c(CSC(=N)N)cc(F)cc12` (as salt: hydrobromid) [Example 1.10, (2-fluorodibenzo[b,d]thiophene-4,6-diyl)bis(methylene) dicarbamimidothioate dihydrobromide]: more than 230 °C.

(Values after US20090069408A1, “TRICYCLIC COMPOUNDS USEFUL IN TREATING IRON DISORDERS” (XENON PHARMACEUTICALS INC., priority 2007, published 2009).)
